{"source": "patent US9828360B2", "about": "(Array BioPharma Inc., priority 2012, dated 2017)", "test_in_all_cases": "KinaseProfiler off-target kinase profiling", "assay_type_in_all_cases": "biochemical", "conditions_in_all_cases": "10 μM, ATP near Km", "key": {"TSSK1": {"target": "T1, TSSK1 (Homo sapiens, UniProt Q9BXA7)", "T1 construct": "purchased Millipore, Inc. (KinaseProfiler service)", "description": "(§1) A representative compound of the invention (Example 48) was tested for off-target kinase activity at a concentration of 10 μM by Millipore, Inc. in their KinaseProfiler™ service against all the kinases available in their full kinase panel. The compound was run in duplicate at a concentration of ATP near the Km for each individual kinase according to Millipore's specifications. The results are shown in Table B. Data are reported as percent of control (POC) and are the average of the two replicates."}, "PRK2": {"target": "T2, PRK2 (Homo sapiens, UniProt Q16513)", "T2 construct": "purchased Millipore, Inc. (KinaseProfiler service)", "description": "as §1"}, "PKCiota": {"target": "T3, PKCiota (Homo sapiens, UniProt P41743)", "T3 construct": "purchased Millipore, Inc. (KinaseProfiler service)", "description": "as §1"}, "NEK3": {"target": "T4, NEK3 (Homo sapiens, UniProt P51956)", "T4 construct": "purchased Millipore, Inc. (KinaseProfiler service)", "description": "as §1"}, "p38beta": {"target": "T5, p38beta (Homo sapiens, UniProt Q15759)", "T5 construct": "purchased Millipore, Inc. (KinaseProfiler service)", "description": "as §1"}, "PKCdelta": {"target": "T6, PKCdelta (Homo sapiens, UniProt Q05655)", "T6 construct": "purchased Millipore, Inc. (KinaseProfiler service)", "description": "as §1"}, "Pim-1": {"target": "T7, Pim-1 (Homo sapiens, UniProt P11309)", "T7 construct": "purchased Millipore, Inc. (KinaseProfiler service)", "description": "as §1"}, "EphA4": {"target": "T8, EphA4 (Homo sapiens, UniProt P54764)", "T8 construct": "purchased Millipore, Inc. (KinaseProfiler service)", "description": "as §1"}, "LOK": {"target": "T9, LOK (Homo sapiens, UniProt O94804)", "T9 construct": "purchased Millipore, Inc. (KinaseProfiler service)", "description": "as §1"}, "PTK6": {"target": "T10, PTK6 (Homo sapiens, UniProt Q13882)", "T10 construct": "purchased Millipore, Inc. (KinaseProfiler service)", "description": "as §1"}, "SRPK2": {"target": "T11, SRPK2 (Homo sapiens, UniProt P78362)", "T11 construct": "purchased Millipore, Inc. (KinaseProfiler service)", "description": "as §1"}, "DAPK3": {"target": "T12, DAPK3 (Homo sapiens, UniProt O43293)", "T12 construct": "purchased Millipore, Inc. (KinaseProfiler service)", "description": "as §1"}, "PKCbetaII": {"target": "T13, PKCbetaII (Homo sapiens, UniProt P05771)", "T13 construct": "purchased Millipore, Inc. (KinaseProfiler service)", "description": "as §1"}, "Haspin": {"target": "T14, Haspin (Homo sapiens, UniProt Q8TF76)", "T14 construct": "purchased Millipore, Inc. (KinaseProfiler service)", "description": "as §1"}, "CAMK2b": {"target": "T15, CAMK2b (Homo sapiens, UniProt Q13554)", "T15 construct": "purchased Millipore, Inc. (KinaseProfiler service)", "description": "as §1"}, "Tie2": {"target": "T16, Tie2 (Homo sapiens, UniProt Q02763)", "T16 construct": "purchased Millipore, Inc. (KinaseProfiler service)", "description": "as §1"}, "EphB3": {"target": "T17, EphB3 (Homo sapiens, UniProt P54753)", "T17 construct": "purchased Millipore, Inc. (KinaseProfiler service)", "T17 sequence (P54753 34-998)": "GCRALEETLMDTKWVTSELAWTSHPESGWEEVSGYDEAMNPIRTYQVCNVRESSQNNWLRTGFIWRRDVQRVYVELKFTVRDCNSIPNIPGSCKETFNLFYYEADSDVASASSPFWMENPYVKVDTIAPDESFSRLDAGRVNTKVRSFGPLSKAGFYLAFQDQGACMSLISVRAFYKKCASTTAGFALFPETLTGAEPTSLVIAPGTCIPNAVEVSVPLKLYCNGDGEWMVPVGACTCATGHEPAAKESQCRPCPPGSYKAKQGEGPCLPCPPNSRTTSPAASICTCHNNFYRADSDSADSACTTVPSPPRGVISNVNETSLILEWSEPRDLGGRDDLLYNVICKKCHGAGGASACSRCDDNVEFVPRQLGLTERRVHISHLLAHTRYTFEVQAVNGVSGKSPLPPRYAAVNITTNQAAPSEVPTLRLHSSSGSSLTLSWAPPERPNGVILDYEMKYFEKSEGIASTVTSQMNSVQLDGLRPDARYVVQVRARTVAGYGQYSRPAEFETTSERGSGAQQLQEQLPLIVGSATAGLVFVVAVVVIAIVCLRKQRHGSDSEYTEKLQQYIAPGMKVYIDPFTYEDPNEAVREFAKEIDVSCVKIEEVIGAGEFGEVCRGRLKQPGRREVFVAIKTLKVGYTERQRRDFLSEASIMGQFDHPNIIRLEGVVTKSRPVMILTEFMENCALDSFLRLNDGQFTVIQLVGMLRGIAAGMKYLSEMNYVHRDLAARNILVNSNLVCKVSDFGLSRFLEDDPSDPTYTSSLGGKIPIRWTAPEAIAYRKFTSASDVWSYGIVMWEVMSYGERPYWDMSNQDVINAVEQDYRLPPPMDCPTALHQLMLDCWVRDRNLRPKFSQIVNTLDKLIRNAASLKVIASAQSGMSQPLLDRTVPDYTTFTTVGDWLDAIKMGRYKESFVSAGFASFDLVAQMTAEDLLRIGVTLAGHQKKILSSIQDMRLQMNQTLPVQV", "description": "as §1"}, "EphA3": {"target": "T18, EphA3 (Homo sapiens, UniProt P29320)", "T18 construct": "purchased Millipore, Inc. (KinaseProfiler service)", "description": "as §1"}, "Plk1": {"target": "T19, Plk1 (Homo sapiens, UniProt P53350)", "T19 construct": "purchased Millipore, Inc. (KinaseProfiler service)", "T19 sequence (P53350 whole entry)": "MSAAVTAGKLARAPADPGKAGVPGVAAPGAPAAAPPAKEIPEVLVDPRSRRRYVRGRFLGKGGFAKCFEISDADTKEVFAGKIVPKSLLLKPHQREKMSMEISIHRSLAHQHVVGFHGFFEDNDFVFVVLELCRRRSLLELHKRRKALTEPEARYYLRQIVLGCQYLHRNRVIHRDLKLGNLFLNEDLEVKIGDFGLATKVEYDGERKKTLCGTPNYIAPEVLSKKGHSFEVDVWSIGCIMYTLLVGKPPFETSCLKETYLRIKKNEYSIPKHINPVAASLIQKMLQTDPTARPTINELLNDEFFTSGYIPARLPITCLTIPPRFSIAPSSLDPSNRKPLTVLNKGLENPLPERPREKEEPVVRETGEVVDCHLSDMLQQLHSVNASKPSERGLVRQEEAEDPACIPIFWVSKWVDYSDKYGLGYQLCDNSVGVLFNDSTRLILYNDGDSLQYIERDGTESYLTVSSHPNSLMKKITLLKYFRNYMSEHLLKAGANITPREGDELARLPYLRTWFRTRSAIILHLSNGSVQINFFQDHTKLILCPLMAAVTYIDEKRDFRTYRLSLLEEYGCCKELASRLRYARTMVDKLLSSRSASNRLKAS", "description": "as §1"}, "EphA1": {"target": "T20, EphA1 (Homo sapiens, UniProt P21709)", "T20 construct": "purchased Millipore, Inc. (KinaseProfiler service)", "T20 sequence (P21709 26-976)": "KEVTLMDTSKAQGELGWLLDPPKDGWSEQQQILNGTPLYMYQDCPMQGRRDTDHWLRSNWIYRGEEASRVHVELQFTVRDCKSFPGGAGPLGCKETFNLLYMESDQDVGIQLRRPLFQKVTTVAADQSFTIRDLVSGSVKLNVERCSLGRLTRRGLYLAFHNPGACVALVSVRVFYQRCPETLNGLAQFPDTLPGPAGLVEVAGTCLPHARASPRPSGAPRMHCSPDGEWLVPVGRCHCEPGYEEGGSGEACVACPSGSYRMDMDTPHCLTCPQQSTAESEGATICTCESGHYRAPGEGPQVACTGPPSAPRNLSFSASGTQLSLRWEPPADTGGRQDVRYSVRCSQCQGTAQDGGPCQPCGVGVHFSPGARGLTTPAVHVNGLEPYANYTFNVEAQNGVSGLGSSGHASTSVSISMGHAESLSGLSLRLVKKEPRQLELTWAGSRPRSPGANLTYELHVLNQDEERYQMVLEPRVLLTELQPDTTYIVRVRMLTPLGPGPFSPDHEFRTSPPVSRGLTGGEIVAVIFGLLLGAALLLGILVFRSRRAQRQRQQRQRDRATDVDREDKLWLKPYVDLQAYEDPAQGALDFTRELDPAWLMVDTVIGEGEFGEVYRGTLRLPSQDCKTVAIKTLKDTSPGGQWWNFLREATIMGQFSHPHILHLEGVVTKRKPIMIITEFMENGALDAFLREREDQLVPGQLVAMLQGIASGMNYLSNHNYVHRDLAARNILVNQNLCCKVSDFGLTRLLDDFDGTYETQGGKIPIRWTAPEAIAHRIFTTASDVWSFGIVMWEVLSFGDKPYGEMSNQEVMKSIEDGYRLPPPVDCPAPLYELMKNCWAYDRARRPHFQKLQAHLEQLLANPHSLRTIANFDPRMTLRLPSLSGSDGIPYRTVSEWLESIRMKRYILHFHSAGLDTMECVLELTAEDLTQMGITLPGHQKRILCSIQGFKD", "description": "as §1"}, "DAPK2": {"target": "T21, DAPK2 (Homo sapiens, UniProt Q9UIK4)", "T21 construct": "purchased Millipore, Inc. (KinaseProfiler service)", "description": "as §1"}, "MST2": {"target": "T22, MST2 (Homo sapiens, UniProt Q13188)", "T22 construct": "purchased Millipore, Inc. (KinaseProfiler service)", "description": "as §1"}, "MSSK1": {"target": "T23, MSSK1 (Homo sapiens, UniProt Q9UPE1)", "T23 construct": "purchased Millipore, Inc. (KinaseProfiler service)", "description": "as §1"}, "Plk3": {"target": "T24, Plk3 (Homo sapiens, UniProt Q9H4B4)", "T24 construct": "purchased Millipore, Inc. (KinaseProfiler service)", "description": "as §1"}, "RIPK2": {"target": "T25, RIPK2 (Homo sapiens, UniProt O43353)", "T25 construct": "purchased Millipore, Inc. (KinaseProfiler service)", "T25 sequence (O43353 whole entry)": "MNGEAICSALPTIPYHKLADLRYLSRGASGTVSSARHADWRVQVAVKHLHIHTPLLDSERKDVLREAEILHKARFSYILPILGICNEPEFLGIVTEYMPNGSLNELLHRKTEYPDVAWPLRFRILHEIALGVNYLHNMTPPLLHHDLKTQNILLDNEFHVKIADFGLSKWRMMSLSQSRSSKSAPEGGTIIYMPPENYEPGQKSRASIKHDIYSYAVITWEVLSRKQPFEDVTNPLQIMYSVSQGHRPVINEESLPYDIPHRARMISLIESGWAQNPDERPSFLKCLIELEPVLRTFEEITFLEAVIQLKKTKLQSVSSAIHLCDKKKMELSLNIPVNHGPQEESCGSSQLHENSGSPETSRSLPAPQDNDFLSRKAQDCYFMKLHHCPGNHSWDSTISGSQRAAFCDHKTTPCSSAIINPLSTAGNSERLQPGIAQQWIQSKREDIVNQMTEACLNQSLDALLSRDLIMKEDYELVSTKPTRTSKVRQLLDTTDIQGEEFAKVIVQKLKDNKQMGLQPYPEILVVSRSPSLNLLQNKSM", "description": "as §1"}, "MELK": {"target": "T26, MELK (Homo sapiens, UniProt Q14680)", "T26 construct": "purchased Millipore, Inc. (KinaseProfiler service)", "description": "as §1"}, "ROCK-I": {"target": "T27, ROCK-I (Homo sapiens, UniProt Q13464)", "T27 construct": "purchased Millipore, Inc. (KinaseProfiler service)", "T27 sequence (Q13464 whole entry)": "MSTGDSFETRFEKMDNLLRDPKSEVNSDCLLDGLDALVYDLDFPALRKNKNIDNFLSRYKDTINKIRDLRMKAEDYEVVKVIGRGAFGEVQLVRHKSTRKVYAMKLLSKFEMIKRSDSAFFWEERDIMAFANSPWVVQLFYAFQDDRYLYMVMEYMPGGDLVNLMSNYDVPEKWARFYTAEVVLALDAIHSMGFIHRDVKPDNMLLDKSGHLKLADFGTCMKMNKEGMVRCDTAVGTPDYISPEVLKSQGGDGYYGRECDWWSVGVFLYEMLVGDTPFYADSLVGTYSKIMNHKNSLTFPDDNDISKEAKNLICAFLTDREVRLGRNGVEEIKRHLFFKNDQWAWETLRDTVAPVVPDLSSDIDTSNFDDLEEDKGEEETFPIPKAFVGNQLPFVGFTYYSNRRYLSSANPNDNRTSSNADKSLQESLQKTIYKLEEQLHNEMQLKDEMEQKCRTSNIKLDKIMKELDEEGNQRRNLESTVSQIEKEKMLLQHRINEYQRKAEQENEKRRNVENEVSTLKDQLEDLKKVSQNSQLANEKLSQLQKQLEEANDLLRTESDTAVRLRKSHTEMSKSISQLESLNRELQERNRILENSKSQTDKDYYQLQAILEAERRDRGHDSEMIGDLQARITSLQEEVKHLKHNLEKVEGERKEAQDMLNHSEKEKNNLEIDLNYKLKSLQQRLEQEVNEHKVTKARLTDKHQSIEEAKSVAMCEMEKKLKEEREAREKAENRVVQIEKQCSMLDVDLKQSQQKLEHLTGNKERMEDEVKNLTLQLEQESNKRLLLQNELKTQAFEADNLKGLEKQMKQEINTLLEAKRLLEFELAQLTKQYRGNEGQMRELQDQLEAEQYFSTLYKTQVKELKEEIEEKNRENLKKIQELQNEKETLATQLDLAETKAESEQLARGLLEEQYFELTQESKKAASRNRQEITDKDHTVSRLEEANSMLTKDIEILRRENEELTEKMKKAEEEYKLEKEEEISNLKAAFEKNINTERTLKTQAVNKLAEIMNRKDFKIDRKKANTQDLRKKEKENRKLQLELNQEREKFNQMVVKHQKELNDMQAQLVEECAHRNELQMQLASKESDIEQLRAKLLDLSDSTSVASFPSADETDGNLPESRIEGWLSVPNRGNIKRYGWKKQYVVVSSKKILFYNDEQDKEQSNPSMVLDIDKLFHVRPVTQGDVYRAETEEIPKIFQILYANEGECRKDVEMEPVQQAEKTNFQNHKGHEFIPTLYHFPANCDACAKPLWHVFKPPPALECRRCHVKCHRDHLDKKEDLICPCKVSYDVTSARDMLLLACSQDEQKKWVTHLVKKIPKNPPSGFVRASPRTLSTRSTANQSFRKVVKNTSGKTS", "description": "as §1"}, "mTOR/FKBP12": {"target": "T28, mTOR/FKBP12 (Homo sapiens, UniProt P42345)", "T28 construct": "purchased Millipore, Inc. (KinaseProfiler service)", "description": "as §1"}, "EphA7": {"target": "T29, EphA7 (Homo sapiens, UniProt Q15375)", "T29 construct": "purchased Millipore, Inc. (KinaseProfiler service)", "description": "as §1"}, "CSK": {"target": "T30, CSK (Homo sapiens, UniProt P41240)", "T30 construct": "purchased Millipore, Inc. (KinaseProfiler service)", "description": "as §1"}, "WNK3": {"target": "T31, WNK3 (Homo sapiens, UniProt Q9BYP7)", "T31 construct": "purchased Millipore, Inc. (KinaseProfiler service)", "description": "as §1"}, "MKK6": {"target": "T32, MKK6 (Homo sapiens, UniProt P52564)", "T32 construct": "purchased Millipore, Inc. (KinaseProfiler service)", "description": "as §1"}, "IGF-1R Activated": {"target": "T33, IGF-1R Activated (Homo sapiens, UniProt P08069)", "T33 construct": "purchased Millipore, Inc. (KinaseProfiler service)", "description": "as §1"}, "Ron": {"target": "T34, Ron (Homo sapiens, UniProt Q04912)", "T34 construct": "purchased Millipore, Inc. (KinaseProfiler service)", "description": "as §1"}, "MAP4K2": {"target": "T35, MAP4K2 (Homo sapiens, UniProt Q12851)", "T35 construct": "purchased Millipore, Inc. (KinaseProfiler service)", "description": "as §1"}, "GRK6": {"target": "T36, GRK6 (Homo sapiens, UniProt P43250)", "T36 construct": "purchased Millipore, Inc. (KinaseProfiler service)", "description": "as §1"}, "WNK2": {"target": "T37, WNK2 (Homo sapiens, UniProt Q9Y3S1)", "T37 construct": "purchased Millipore, Inc. (KinaseProfiler service)", "description": "as §1"}, "MEK1": {"target": "T38, MEK1 (Homo sapiens, UniProt Q02750)", "T38 construct": "purchased Millipore, Inc. (KinaseProfiler service)", "description": "as §1"}, "CLK2": {"target": "T39, CLK2 (Homo sapiens, UniProt P49760)", "T39 construct": "purchased Millipore, Inc. (KinaseProfiler service)", "T39 sequence (P49760 whole entry)": "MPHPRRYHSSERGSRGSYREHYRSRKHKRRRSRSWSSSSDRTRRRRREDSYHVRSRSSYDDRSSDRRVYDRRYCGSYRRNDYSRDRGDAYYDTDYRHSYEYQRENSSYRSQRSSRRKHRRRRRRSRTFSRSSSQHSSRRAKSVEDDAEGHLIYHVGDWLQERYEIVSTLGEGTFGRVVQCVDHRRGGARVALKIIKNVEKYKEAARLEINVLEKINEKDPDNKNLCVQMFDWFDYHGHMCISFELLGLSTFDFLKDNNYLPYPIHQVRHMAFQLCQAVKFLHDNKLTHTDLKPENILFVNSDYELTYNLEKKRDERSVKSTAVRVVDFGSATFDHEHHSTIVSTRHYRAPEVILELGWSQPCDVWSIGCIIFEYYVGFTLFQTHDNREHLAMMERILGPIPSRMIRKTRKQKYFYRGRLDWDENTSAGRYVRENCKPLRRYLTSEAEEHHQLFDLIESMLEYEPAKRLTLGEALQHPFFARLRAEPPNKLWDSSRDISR", "description": "as §1"}, "Axl": {"target": "T40, Axl (Homo sapiens, UniProt P30530)", "T40 construct": "purchased Millipore, Inc. (KinaseProfiler service)", "description": "as §1"}, "CHK1": {"target": "T41, CHK1 (Homo sapiens, UniProt O14757)", "T41 construct": "purchased Millipore, Inc. (KinaseProfiler service)", "description": "as §1"}}, "data": [{"smiles": "COCCN1C[C@@H](NC(=O)Nc2sc(C(C)C)nc2-c2ccccc2)[C@H](c2ccccc2)C1", "note": "[Example 48, 1-(2-isopropyl-4-phenylthiazol-5-yl)-3-((3S,4R)-1-(2-methoxyethyl)-4-phenylpyrrolidin-3-yl)urea]", "values": [{"measurement": "Avg POC", "setting": "TSSK1", "result": "99.5% of control"}, {"measurement": "Avg POC", "setting": "PRK2", "result": "111% of control"}, {"measurement": "Avg POC", "setting": "PKCiota", "result": "120% of control"}, {"measurement": "Avg POC", "setting": "NEK3", "result": "129% of control"}, {"measurement": "Avg POC", "setting": "p38beta", "result": "115% of control"}, {"measurement": "Avg POC", "setting": "PKCdelta", "result": "119.5% of control"}, {"measurement": "Avg POC", "setting": "Pim-1", "result": "134% of control"}, {"measurement": "Avg POC", "setting": "EphA4", "result": "105.5% of control"}, {"measurement": "Avg POC", "setting": "LOK", "result": "107.5% of control"}, {"measurement": "Avg POC", "setting": "PTK6", "result": "99.5% of control"}, {"measurement": "Avg POC", "setting": "SRPK2", "result": "109% of control"}, {"measurement": "Avg POC", "setting": "DAPK3", "result": "91% of control"}, {"measurement": "Avg POC", "setting": "PKCbetaII", "result": "97.5% of control"}, {"measurement": "Avg POC", "setting": "Haspin", "result": "117% of control"}, {"measurement": "Avg POC", "setting": "CAMK2b", "result": "90% of control"}, {"measurement": "Avg POC", "setting": "Tie2", "result": "96% of control"}, {"measurement": "Avg POC", "setting": "EphB3", "result": "119% of control"}, {"measurement": "Avg POC", "setting": "EphA3", "result": "112% of control"}, {"measurement": "Avg POC", "setting": "Plk1", "result": "93% of control"}, {"measurement": "Avg POC", "setting": "EphA1", "result": "113.5% of control"}, {"measurement": "Avg POC", "setting": "DAPK2", "result": "99% of control"}, {"measurement": "Avg POC", "setting": "MST2", "result": "109.5% of control"}, {"measurement": "Avg POC", "setting": "MSSK1", "result": "94% of control"}, {"measurement": "Avg POC", "setting": "Plk3", "result": "113.5% of control"}, {"measurement": "Avg POC", "setting": "RIPK2", "result": "108% of control"}, {"measurement": "Avg POC", "setting": "MELK", "result": "89% of control"}, {"measurement": "Avg POC", "setting": "ROCK-I", "result": "103.5% of control"}, {"measurement": "Avg POC", "setting": "mTOR/FKBP12", "result": "111.5% of control"}, {"measurement": "Avg POC", "setting": "EphA7", "result": "101% of control"}, {"measurement": "Avg POC", "setting": "CSK", "result": "108% of control"}, {"measurement": "Avg POC", "setting": "WNK3", "result": "99.5% of control"}, {"measurement": "Avg POC", "setting": "MKK6", "result": "121% of control"}, {"measurement": "Avg POC", "setting": "IGF-1R Activated", "result": "102% of control"}, {"measurement": "Avg POC", "setting": "Ron", "result": "105.5% of control"}, {"measurement": "Avg POC", "setting": "MAP4K2", "result": "110.5% of control"}, {"measurement": "Avg POC", "setting": "GRK6", "result": "101% of control"}, {"measurement": "Avg POC", "setting": "WNK2", "result": "92.5% of control"}, {"measurement": "Avg POC", "setting": "MEK1", "result": "100% of control"}, {"measurement": "Avg POC", "setting": "CLK2", "result": "116% of control"}, {"measurement": "Avg POC", "setting": "Axl", "result": "113% of control"}, {"measurement": "Avg POC", "setting": "CHK1", "result": "110% of control"}]}]}
